Reference: PMC8596843, “Platinum Cyclooctadiene Complexes with Activity against Gram‐positive Bacteria” (Chemmedchem, 2021)
Marks after values point to notes of the source that are not given here.

What was measured:
[1] = system: Galleria mellonella larvae; assay: In vivo toxicity in moth larvae; settings: for concentration without any toxicity in G. mellonella: 10 μL injected, five larvae per concentration, survival and health index over 96 hours, highest tested; for dosage without any toxicity in G. mellonella: equates to 0.4 mM, 10 μL injection
Description: Following a protocol previously reported by us we used larvae of the greater wax moth Galleria mellonella as a model organism for in vivo toxicity and efficacy.[20] […] Briefly, stock solutions of Pt1 and Pt2 were prepared in DMSO and diluted to final concentrations of 0.4 mM, 100 μM, 10 μM and 1 μM. […] For each concentration five larvae were injected with 10 μL and monitored for 96 hours for survival and health using the G. mellonella Health Index Scoring System.[22] […]
G. mellonella larvae were reared in controlled environmental room at Macquarie University, Sydney, Australia at 26 °C and 65% humidity with a 12-hours light/dark cycle. Larvae (~200 mg) were individually injected with 10 µL of chemical into the last right proleg using a 100 μL syringe (Hamilton Ltd). The […]
Each compound was dissolved in DMSO and diluted to final concentrations of 1 µM, 100 µM and 10 mM. We injected 5 larvae for each dilution of each compound.
Larvae injected with different dilutions of DMSO (10-1, 10-3 and 10-5) were included as negative controls.
Following injection, the larvae were incubated at 26 °C and monitored every 24 h for 4 days. Larval performance was assessed according to the G. mellonella Health Index Scoring System.[1] The experiments were repeated three separate times. […]

[2] = system: Staphylococcus epidermidis ATCC 14990, type strain; assay: Antibacterial MIC assay, Gram-positive panel; assay type: cell-based; settings: n=4
In short: (§1)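 MIC is defined here as the lowest concentration inhibiting growth by ≥80% relative to untreated bacteria. The assay used OD600 in CAMHB after an 18 h, 37 °C incubation at 5 × 10^5 CFU/mL. Compound was dosed in 2-fold steps with DMSO capped at 0.5–1% final.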

[3] = system: Enterococcus faecium Clinical Isolate, VRE (VanA); assay: Antibacterial MIC assay, Gram-positive panel; assay type: cell-based; settings: n=4
In short: as §1

[4] = system: Enterococcus faecalis ATCC 29212, control strain; assay: Antibacterial MIC assay, Gram-positive panel; assay type: cell-based; settings: n=4
In short: as §1

[5] = system: Enterococcus faecalis Clinical Isolate, VRE (VanB); assay: Antibacterial MIC assay, Gram-positive panel; assay type: cell-based; settings: n=4
In short: as §1

[6] = system: Staphylococcus epidermidis NRS 60, VISE; assay: Antibacterial MIC assay, Gram-positive panel; assay type: cell-based; settings: n=4
In short: as §1

[7] = system: Enterococcus faecium ATCC 51559, MDR, VRE (VanA); assay: Antibacterial MIC assay, Gram-positive panel; assay type: cell-based; settings: n=2
In short: as §1

[8] = system: Staphylococcus aureus NRS 17, GISA; assay: Antibacterial MIC assay, Gram-positive panel; assay type: cell-based; settings: n=2
In short: as §1

[9] = system: E. coli lpxC (non‐efficient lipid A production mutant); assay: MIC against E. coli membrane mutants; assay type: cell-based, Escherichia coli; settings: Table S2
Description: (§2) Antibacterial minimum inhibitory concentration (MIC) assay
(§3) concentration. (in-house screening)
(§4) Bacto Laboratories 212322) at 37 °C overnight.
(§5) The resultant mid-log phase cultures were diluted
(§6) Gram-negative and Gram-positive bacteria, respectively.
(§7) final concentration range of 0.8 – 100 µM.
(§8) inhibitors as positive control. […]

[10] = system: S. aureus ATCC 43300 MRSA; assay: MIC in the presence of human serum (serum reversal); assay type: cell-based, Staphylococcus aureus; settings: 50% serum
In short: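 MIC determination repeated in the presence of 10% or 50% human serum. Bacteria grown overnight at 37 °C, diluted from mid-log cultures, and tested at a final concentration range of 0.8–100 µM.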

[11] = system: E. faecium ATCC 51559 MDR, VRE; assay: as above; assay type: cell-based, Enterococcus faecium; settings: 10% serum
Source text: (§9) To obtain some initial insight into the apparent disparity between in vitro and in vivo results, we repeated the MIC experiments against four selected Gram‐positive strains in the presence of 10 % or 50 % human serum (Table S3). Pt1 and Pt2 maintained some antibacterial activity against B. subtilis in the presence of 10 % serum, but a complete loss of activity was observed against MRSA and GISA (50 % serum), and VRE (10 % serum). […] Systemic administration is therefore unlikely to be a suitable administration route for this class of compounds unless an alternative formulation that can prevent serum binding (e. g. by lipid or nanoparticle encapsulation) can be found. […] Further in vivo studies should therefore focus on more suitable disease models. […]
as §2, §3, §4, §5, §6, §7, §8

[12] = system: B. subtilis ATCC 6051 type strain; assay: as above; assay type: cell-based, Bacillus subtilis; settings: 10% serum
Source text: as §9, §2, §3, §4, §5, §6, §7, §8

[13] = system: E. coli tolC (efflux pump deficient); assay: MIC against E. coli membrane mutants; assay type: cell-based, Escherichia coli; settings: Table S2
Description: as §2, §3, §4, §5, §6, §7, §8

SMILES: C1=C\CC/C=C\CC/1.[Cl-].[Cl-].[Pt+2] [Pt1, Pt(COD)Cl2]
- concentration without any toxicity in G. mellonella [1]: ≥ 400 µM
- dosage without any toxicity in G. mellonella [1]: 6 to 7.5 mg/kg
- MIC ([2]; Table 2 panel): 0.781^[a] μg/mL
- MIC ([3]; Table 2 panel): 25–50^[a] μg/mL
- MIC ([4]; Table 2 panel): 50–100^[a] μg/mL
- MIC ([5]; Table 2 panel): 25^[a] μg/mL
- MIC ([6]; Table 2 panel): 3.125^[a] μg/mL
- MIC ([7]; Table 2 panel): 12.5^[b] μg/mL

SMILES: C1=CCC/C=C\CC1.[I][Pt][I] [Pt2, Pt(COD)I2]
- concentration without any toxicity in G. mellonella [1]: ≥ 400 µM
- dosage without any toxicity in G. mellonella [1]: 9 to 11 mg/kg
- MIC ([2]; Table 2 panel): 1.56^[a] μg/mL
- MIC ([3]; Table 2 panel): 25^[a] μg/mL
- MIC ([4]; Table 2 panel): 25–50^[a] μg/mL
- MIC ([5]; Table 2 panel): 12.5–25^[a] μg/mL
- MIC ([6]; Table 2 panel): 6.25^[a] μg/mL
- MIC ([7]; Table 2 panel): 12.5–25^[b] μg/mL
- MIC ([8]; Table 2 panel): 0.78–1.56^[b] μg/mL
- MIC E. coli lpxC [9]: 100 µM

SMILES: CCC1=CCCC=CCC1.[CH3][Pt][Cl] [Pt7]
- MIC in the presence of human serum [10]: > 200 µM
- MIC ([2]; Table S1 panel): 200 µM
- MIC ([3]; Table S1 panel): > 200 µM
- MIC ([4]; Table S1 panel): > 200 µM
- MIC ([5]; Table S1 panel): > 200 µM
- MIC ([6]; Table S1 panel): > 200 µM
- MIC ([7]; Table S1 panel): 200 µM
- MIC ([8]; Table S1 panel): 200 µM
- MIC in the presence of human serum [11]: > 200 µM
- MIC in the presence of human serum [12]: > 200 µM
- MIC E. coli TolC [13]: > 200 µM
- MIC E. coli lpxC [9]: > 200 µM
